Source: patent publication US20200157156A1, “GRATELOUPIA CHIANGII-DERIVED LECTIN AND LECTIN GENE CODING FOR THE SAME” (priority 2018, published 2020)
Where a name gives a salt, the structure may show the parent alone.

Columns and labels:
[1] = tested on: GCL; assay: Glycan microarray (glycan-300 array) binding to GCL; set-up: species or system Grateloupia chiangii; settings: 50 μg/mL biotinylated lectin; for RFU (Normalized) GCL: Cy3-streptavidin detection
Method: A glycan microarray was performed by Ebiogen (Korea). A glycan array kit was purchased from RayBioTech (Norcross, Ga., USA). An array consisting of 300 synthetic glycans printed in quadruplicate on a glass slide was used. Label-based detection was performed according to the manufacturer's protocol. 50 μg/mL of biotinylated lectin was put into wells, and gently shaken for 3 hours or more. The glass slide was washed with 1× washing buffers I and II provided in the kit. The glycan-lectin binding was detected by reacting with Cy3 equivalent dye-conjugated streptavidin at room temperature for an hour. Signals for Cy3 detection were visualized using a microarray laser scanner (Genfix 4100A, Molecular Devices, Sunnyvale, Calif., USA) (excitation at 554 nm, and emission at 568 nm). Data extraction was performed using microarray assay software Genfix. The […] array data was analyzed using RayBioTech (RayBioTech) software.
To determine the carbohydrate specificity, a glycan microarray was carried out using a glycan-300 array kit in which 300 different carbohydrates were immobilized. Referring to FIGS. 6 and 7 and Table 2 below, 18 of the 300 tested carbohydrates produced at least 1,000 positive signals. GCL produced weak binding signals to the monosaccharides, that is, β-Glc-sp, β-Gal-sp, and α-Man-sp. Normalized signal intensities were 2,579, 2,269, and 2,194, respectively. Also, the GCL was able to bind to maltotetraose-β-Sp1 with a signal intensity of 2,705. […] It was that high-mannan structures, that is, Man-α-1,6-(Man-α-1,3-), Man-α-1,6-(GlcNAc-β-1,2-Man-α-1,3-)Man-β-1,4-GlcNAc-β-1, and 4-GlcNAc-Sp5, interacted with the GCL.

[2] = Cytotoxicity (cell viability, MTT method)
Method: (§1) The antiviral effect was determined through cell viability, and the like using a virus-induced cytopathic effect (CPE) inhibition method and an MTT method.

[3] = tested on: herpes simplex virus 1 (HSV1) (F); assay: Antiviral effect, CPE inhibition / MTT, HSV1; assay type: cell-based
Method: as §1

[4] = tested on: herpes simplex virus 2 (HSV2) (MS); assay: Antiviral effect, CPE inhibition / MTT, HSV2; assay type: cell-based
Method: as §1

[5] = biological target: fetuin; assay: cell-based or functional assay
[6] = tested on: GCL; assay: Hemagglutination inhibition test (carbohydrate specificity of GCL); assay type: cell-based, Grateloupia chiangii; settings: 4 haemagglutination activity units of GCL, equine red blood cells
Method: The carbohydrate specificity was determined by means of a hemagglutination inhibition test. Proteins and carbohydrates used for the inhibition test included D-glucose (D-Glc), D-mannose (D-Man), D-galactose (D-Gal), N-acetyl-D-glucosamine (GlcNAc), N-acetyl-D-galactosamine (GalNAc), D-fucose (F-Fuc), fructose (Fru), lactose (Lac), and fetuin. A sample (25 μL) having 4 haemagglutination activity units was mixed with each of the carbohydrates (25 μL), and 25 μL of a mixture was removed from each well. An equivalent amount of a 4% suspension of equine red blood cells was added to, and mixed with the sample. The plate was kept at room temperature for 30 minutes, and then confirmed for inhibitory activities.

[7] = tested on: equine red blood cells; assay: Hemagglutination assay, equine red blood cells; assay type: cell-based, horse
Method: (§2) For a hemagglutination assay, horse and sheep blood was purchased (Hanil Comed, Korea). The blood was washed with phosphate buffered saline (PBS, pH 7.3) until a red color of a supernatant disappeared. Each of red blood cells was prepared into a 4% suspension in PBS. The sample was serially diluted in a 96-well U-bottom plate, and a 4% suspension of red blood cells was then added to each well. The sample was kept at room temperature for 30 minutes, and then confirmed for agglutination activities.

[8] = tested on: ovine red blood cells; assay: Hemagglutination assay, ovine red blood cells; assay type: cell-based, sheep; settings: 4% suspension, room temperature, 30 minutes
Method: as §2

[9] = Thermal stability of GCL activity; assay type: physicochemical
Method: (§3) The thermal stability of GCL was measured at different temperatures (ranging from 20 to 90° C.). The GCL activities were not affected until the temperature reached 30° C. […] FIG. 5 is a graph for analyzing a change in degree of activity of CGL according to divalent cations added.

[10] = Effect of divalent cations on GCL activity; settings: presence of divalent cations (Mg2+ and Ca2+)
Method: as §3

[11] = 4% suspension, room temperature, 30 minutes

In the case of Maltohexaose-β-Sp1 [G0082], the “Binding of GCL to glycan” value [1] is reported as “strongly bound” and the “RFU (Normalized) GCL” value [1] is reported as 7,524 ± 1,976 RFU.

With “pentosan polysulfate [Penosan polysulfate]” the “Toxicity CC50” value [2] was greater than 100 µg/mL, the “Antiviral activity (EC50) HSV1 (F)” value [3] was 4.77 µg/mL and the “Antiviral activity (EC50) HSV2 (MS)” value [4] was 2.10 µg/mL.

In the case of dextran sulfate 8000, the “Antiviral activity (EC50) HSV1 (F)” value [3] is reported as 15.54 µg/mL and the “Antiviral activity (EC50) HSV2 (MS)” value [4] is reported as 4.52 µg/mL.

With β-GlcNAc-Sp [G0006] the “RFU (Normalized) GCL” value [1] was 1,104 ± 133 RFU.

For “Grateloupia chiangii-derived lectin (GCL)”, the inhibition of haemagglutination activity of GCL (4 haemagglutination activity units, equine red blood cells) [5] was 195 µg/mL.

In the case of `O=C[C@@H](O)[C@@H](O)[C@H](O)[C@H](O)CO` [D-mannose], the “Concentration inhibiting haemagglutination activity of GCL” value [6] is reported as 125 mM.

In the case of `O=C(CO)[C@@H](O)[C@H](O)[C@H](O)CO` [fructose], the “Concentration inhibiting haemagglutination activity of GCL” value [6] is reported as 250 mM.

In the case of Gal-β-1,4-Glc-β-Sp [G0016], the “RFU (Normalized) GCL” value [1] is reported as 1,260 ± 126 RFU.

For `CN[C@@H]1[C@@H](O)[C@@H](O[C@@H]2[C@@H](O)[C@H](O[C@H]3OC(CN)=CC[C@H]3N)[C@@H](N)C[C@H]2N)OC[C@]1(C)O` [G0056, Sisomicin Sulfate], the “RFU (Normalized) GCL” value [1] was 1,583 ± 177 RFU.

With `Nc1nc2c(ncn2COCCO)c(=O)[nH]1` [Acyclovir] the CC50 [2] was greater than 100 µg/mL, the “Selective index HSV1 (F)” value [3] was greater than 192 and the EC50 ([3]; Human alphaherpesvirus 1, footnote: concentration, μM) was 0.52 µM. The “Selective index HSV2 (MS)” value [4] was greater than 35 and the EC50 ([4]; Human alphaherpesvirus 2, footnote: concentration, μM) was 2.87 µM.

For α-Man-Sp [G0003], the Normalized signal intensity [1] was 2,194 and the “RFU (Normalized) GCL” value [1] was 2,093 ± 294 RFU.

In the case of “Man-α-1,6-(Man-α-1,3-)Man-α-1,6-(Gal-β-1,4-GlcNAc-β-1,2-Man-α-1,3-)Man-β-1,4-GlcNAc-β-1,4-GlcNAc-Sp5 [N-011]”, the “RFU (Normalized) GCL” value [1] is reported as 1148 ± 173 RFU.

With Gal-α-1,4-Gal-β-1,4-Glc-β-Sp [G0018] the “RFU (Normalized) GCL” value [1] was 1,124 ± 47 RFU.

With D-cellose-β-Sp1 [G0087] the “RFU (Normalized) GCL” value [1] was 1,165 ± 82 RFU.

For Glc-α-1,4-Glc-β-Sp1 [G0076], the “RFU (Normalized) GCL” value [1] was 1,238 ± 28 RFU.

For “Man-α-1,6-(Man-α-1,3-)Man-α-1,6-[Gal-β-1,4-(Fuc-α-1,3-)GlcNAc-β-1,2-Man-α-1,3-]Man-β-1,4-GlcNAc-β-1,4-GlcNAc-Sp5 [N-014]”, the “RFU (Normalized) GCL” value [1] was 1129 ± 151 RFU.

For “Man-α-1,6-(Man-α-1,3-)Man-α-1,6-(GlcNAc-β-1,2-Man-α-1,3-)Man-β-1,4-GlcNAc-β-1,4-GlcNAc-Sp5 [N-010]”, the “RFU (Normalized) GCL” value [1] was 1142 ± 116 RFU.

With Maltoheptaose-β-Sp1 [G0083] the “Binding of GCL to glycan” value [1] was “strongly bound” and the “RFU (Normalized) GCL” value [1] was 8,132 ± 1,810 RFU.

For β-Gal-Sp [G0002], the Normalized signal intensity [1] was 2,269 and the “RFU (Normalized) GCL” value [1] was 2,165 ± 237 RFU.

With Maltotetraose-β-Sp1 [G0080] the Normalized signal intensity [1] was 2,705 and the “RFU (Normalized) GCL” value [1] was 2,577 ± 351 RFU.

With β-Glc-Sp [G0001] the Normalized signal intensity [1] was 2,579 and the “RFU (Normalized) GCL” value [1] was 2,273 ± 544 RFU.

In the case of Gal-β-1,4-Glc-Sp [H0400], the “RFU (Normalized) GCL” value [1] is reported as 1,044 ± 110 RFU.

For Glc-α-1,2-Gal-α-Sp [G0048], the “RFU (Normalized) GCL” value [1] was 1,173 ± 110 RFU.

B1: fetuin (protein, UniProt P12763 19-359, looked up)
Alpha-2-HS-glycoprotein: IPLDPVAGYKEPACDDPDTEQAALAAVDYINKHLPRGYKHTLNQIDSVKVWPRRPTGEVYDIEIDTLETTCHVLDPTPLANCSVRQQTQHAVEGDCDIHVLKQDGQFSVLFTKCDSSPDSAEDVRKLCPDCPLLAPLNDSRVVHAVEVALATFNAESNGSYLQLVEISRAQFVPLPVSVSVEFAVAATDCIAKEVVDPTKCNLLAEKQYGFCKGSVIQKALGGEDVRVTCTLFQTQPVIPQPQPDGAEAEAPSAVPDAAGPTPSAAGPPVASVVVGPSVVAVPLPLHRAHYDLRHTFSGVASVESSSGEAFHVGKTPIVGQPSIPGGPVRLCPGRIRYFKI
For B1, the “Concentration inhibiting haemagglutination activity of GCL” value [6] was 195 µg/mL.

B2: GCL: lectin protein purified from red alga Grateloupia chiangii by D-mannose affinity chromatography, SEQ ID NO: 1, about 25 kDa (protein)
chain: MVVSNRLVSGESLHRGQHIISSDQHFMLVHQYDGNVVLYDVAGSGSGKPLWSTNTYGSHTTVFKMQEDSNLVLYATGGKPIWASDTHGSGGRFLEMQNDGNLVVYTDVGKPKWASDTHQGIAPRSEISVNQVLRIREGLHSANKRNELILQNDGNLVLSKNGSTAWSSGTAGTGANVLVLQIDGNLVLYNDTKSVWASGSMNKGGRTAVMQDDGNFVLYAEGGKPVWATNT
modifications: GLC
With B2 the “Agglutination of equine red blood cells” value [7, 11] was “agglutinated”, the “Minimal concentration for agglutination of equine red blood cells” value [7, 11] was 0.8 µg/mL and the “Specific activity (Titer/mg)” value ([7]; hemagglutination titer per mg protein) was 51,200 Titer/mg. For the same molecule, the “Total activity (Titer)” value ([7]; hemagglutination titer, purification step from 30 g sample) was 33,280 Titer, the “Agglutination of ovine red blood cells” value [8] was “did not agglutinate” and the “GCL activity according to temperature” value ([9]; at 40° C.) was “Half of the activities were lost”. The Initial activities maintained ([9]; heated at 90° C. for 30 minutes) was “approximately 15%”, the “GCL activity according to temperature” value ([9]; until the temperature reached 30° C.) was “not affected” and the “Change in activity by divalent cations” value [10] was “not highly affected”. The “Toxicity CC50” value [2] was greater than 5 µg/mL, the “Antiviral activity (EC50) HSV1 (F)” value [3] was 0.18 µg/mL and the “Antiviral activity (EC50) HSV2 (MS)” value [4] was 0.036 µg/mL.
